From ChEMBL document CHEMBL4334512, “Rationally Designed, Conformationally Constrained Inverse Agonists of RORγt-Identification of a Potent, Selective Series with Biologic-Like in Vivo Efficacy” (J Med Chem, 2019) come the findings set out here.

Series [1] is described as follows: Half life in mouse liver microsomes. The format is ADME, Microsome. On the technique in general: Liver microsomes are vesicles of endoplasmic reticulum, rich in cytochrome P450 enzymes.
Series [2] is described as follows: Unbound fraction in human serum. The format is ADME, cell-free.
Series [3] has as its target T1, Oxysterols receptor LXR-beta (Homo sapiens, UniProt P55055).
T1 sequence (P55055 whole entry): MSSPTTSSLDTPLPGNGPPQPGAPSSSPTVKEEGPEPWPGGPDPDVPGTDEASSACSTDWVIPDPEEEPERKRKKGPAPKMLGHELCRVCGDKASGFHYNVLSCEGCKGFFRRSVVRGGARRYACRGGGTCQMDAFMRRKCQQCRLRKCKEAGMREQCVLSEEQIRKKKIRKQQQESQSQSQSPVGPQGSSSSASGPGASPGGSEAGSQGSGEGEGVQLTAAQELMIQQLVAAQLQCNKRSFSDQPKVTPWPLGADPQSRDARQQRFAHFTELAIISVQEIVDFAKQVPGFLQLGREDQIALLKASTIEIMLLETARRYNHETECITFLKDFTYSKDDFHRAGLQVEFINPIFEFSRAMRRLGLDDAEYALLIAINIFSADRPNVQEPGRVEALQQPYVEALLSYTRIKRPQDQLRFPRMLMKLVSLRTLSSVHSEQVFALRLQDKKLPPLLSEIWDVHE
As to the kind of experiment: Activity at LXRbeta (unknown origin).

Series [4] in a line: Half life in human liver microsomes. It counts as ADME, Microsome.
Series [5] in a line: Half life in rat liver microsomes. It counts as ADME, Microsome.
For series [6], the target named is T2, Nuclear receptor subfamily 1 group I member 2 (Homo sapiens, UniProt O75469).
T2 sequence (O75469 whole entry): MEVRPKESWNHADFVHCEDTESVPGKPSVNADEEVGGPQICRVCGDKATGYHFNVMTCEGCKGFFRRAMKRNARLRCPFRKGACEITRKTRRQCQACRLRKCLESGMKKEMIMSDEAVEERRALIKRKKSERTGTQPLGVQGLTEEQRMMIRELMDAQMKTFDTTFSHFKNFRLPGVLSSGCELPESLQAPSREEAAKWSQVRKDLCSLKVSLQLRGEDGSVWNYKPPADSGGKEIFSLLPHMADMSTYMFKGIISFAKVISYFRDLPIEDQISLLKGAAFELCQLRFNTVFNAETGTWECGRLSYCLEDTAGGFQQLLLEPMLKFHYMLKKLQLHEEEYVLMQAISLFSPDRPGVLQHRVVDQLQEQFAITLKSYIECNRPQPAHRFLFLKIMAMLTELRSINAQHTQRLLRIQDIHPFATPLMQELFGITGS
As to the kind of experiment: Activity at PXR (unknown origin).

The target of series [7] is T3, Nuclear receptor ROR-beta (Homo sapiens, UniProt Q92753).
T3 sequence (Q92753 whole entry): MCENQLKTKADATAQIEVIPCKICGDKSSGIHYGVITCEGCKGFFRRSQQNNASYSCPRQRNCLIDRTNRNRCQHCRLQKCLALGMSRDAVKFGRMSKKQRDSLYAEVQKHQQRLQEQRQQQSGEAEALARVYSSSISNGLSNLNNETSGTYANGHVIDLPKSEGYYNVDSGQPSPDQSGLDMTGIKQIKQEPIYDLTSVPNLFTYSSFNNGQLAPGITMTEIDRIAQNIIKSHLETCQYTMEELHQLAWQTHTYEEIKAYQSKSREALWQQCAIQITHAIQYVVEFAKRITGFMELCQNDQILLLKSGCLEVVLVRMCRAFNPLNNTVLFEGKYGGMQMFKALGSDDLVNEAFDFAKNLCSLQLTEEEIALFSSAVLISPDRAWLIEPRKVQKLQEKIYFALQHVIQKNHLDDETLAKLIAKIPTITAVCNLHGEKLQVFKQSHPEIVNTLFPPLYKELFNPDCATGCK
The series is described as follows: Activity at RORbeta (unknown origin).

For series [8], the target named is T4, Oxysterols receptor LXR-alpha (Homo sapiens, UniProt Q13133).
T4 sequence (Q13133 whole entry): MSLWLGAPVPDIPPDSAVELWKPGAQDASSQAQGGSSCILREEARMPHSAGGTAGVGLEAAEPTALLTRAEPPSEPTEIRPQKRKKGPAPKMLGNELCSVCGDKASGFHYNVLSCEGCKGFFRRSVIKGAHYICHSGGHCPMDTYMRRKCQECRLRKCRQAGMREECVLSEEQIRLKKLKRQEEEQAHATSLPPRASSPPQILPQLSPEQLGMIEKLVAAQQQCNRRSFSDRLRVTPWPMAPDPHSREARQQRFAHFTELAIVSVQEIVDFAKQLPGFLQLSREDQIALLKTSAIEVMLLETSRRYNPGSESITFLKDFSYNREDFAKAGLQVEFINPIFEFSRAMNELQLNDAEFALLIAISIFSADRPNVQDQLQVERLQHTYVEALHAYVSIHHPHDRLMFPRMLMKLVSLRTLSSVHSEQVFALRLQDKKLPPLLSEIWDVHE
As to the kind of experiment: Activity at LXRalpha (unknown origin).

Series [9] deals with T5, Nuclear receptor ROR-alpha (Homo sapiens, UniProt P35398).
T5 sequence (P35398 whole entry): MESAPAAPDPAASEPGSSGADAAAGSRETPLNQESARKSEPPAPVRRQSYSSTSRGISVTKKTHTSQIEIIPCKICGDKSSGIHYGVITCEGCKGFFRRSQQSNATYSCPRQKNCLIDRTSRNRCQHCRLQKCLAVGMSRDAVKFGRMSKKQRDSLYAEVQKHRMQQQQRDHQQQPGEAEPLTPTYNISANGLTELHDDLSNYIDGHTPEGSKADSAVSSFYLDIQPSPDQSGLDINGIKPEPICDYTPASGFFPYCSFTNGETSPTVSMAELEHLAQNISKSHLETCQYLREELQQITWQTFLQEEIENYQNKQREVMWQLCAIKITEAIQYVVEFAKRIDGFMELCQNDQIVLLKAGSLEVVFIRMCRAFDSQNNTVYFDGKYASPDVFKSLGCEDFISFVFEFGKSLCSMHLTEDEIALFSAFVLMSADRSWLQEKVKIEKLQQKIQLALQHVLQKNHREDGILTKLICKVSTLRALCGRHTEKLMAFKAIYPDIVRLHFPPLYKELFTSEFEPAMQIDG
The series is described as follows: Activity at RORalpha (unknown origin).

Series [10] can be described thus: Cmax in Balb/c mouse at 10 mg/kg, po. It counts as ADME, organism-based. Details: dose 10 mg/kg, route oral. To be noted: in vivo.
Series [11] is described as follows: Drug level in Balb/c mouse at 10 mg/kg, po after 24 hrs. It counts as ADME, organism-based. To be noted: in vivo, read-out: Drug uptake.

Bounds are passed on as bounds.

One may read the half-life as the time in which the quantity being followed falls by half. Higher therefore signals slow decline. For orientation: fraction unbound means free concentration divided by total concentration. A lower fraction unbound goes with extensive binding. Usually IC50 stands for the point on the concentration scale where inhibition reaches its midpoint. Lower therefore signals greater potency in that assay. Broadly, the Cmax is the peak of the concentration-time curve.

Turning to `O=C(O)[C@H]1CC[C@H](C(=O)N2CC[C@@]3(S(=O)(=O)c4ccc(F)cc4)c4ccc(C(F)(C(F)(F)F)C(F)(F)F)cc4NC[C@@H]23)CC1`, the half-life in series [1], in series [4] and in series [5] was over 2 h in each case. For the same molecule, the fraction unbound in [2] is 0.014. In addition, the IC50 is over 10 µM in [3]; over 40 µM in series [6]; over 10 µM in series [7]; over 10 µM in series [8]; over 10 µM in series [9].
With `O=C(O)[C@H]1CC[C@](O)(C(=O)N2CC[C@@]3(S(=O)(=O)c4ccc(F)cc4)c4ccc(C(F)(C(F)(F)F)C(F)(F)F)cc4CC[C@@H]23)CC1`, the half-life is over 2 h in series [1], 1.65 h in [4] and over 2 h in [5]. Besides, the IC50 is over 10 µM in series [3]; over 40 µM in series [6]; over 10 µM in [7]; over 10 µM in series [8]; over 10 µM in series [9]. Also, the concentration in series [10] peaked (Cmax) at 2500 nM. For the same molecule, the concentration at 24 h in series [11] was 260 nM.
For the molecule `O=C(O)C12CCC(C(=O)N3CC[C@@]4(S(=O)(=O)c5ccc(F)cc5)c5ccc(C(F)(C(F)(F)F)C(F)(F)F)cc5CC[C@@H]34)(CC1)CC2`, the half-life in series [1], in series [4] and in series [5] was over 2 h each time. In addition, the IC50 in series [3] is over 10 µM; in series [6], over 40 µM; in [7], over 10 µM; in [8], over 10 µM; in [9] it was over 10 µM. In [10], the peak level (Cmax) was 9300 nM. The concentration at 24 h in series [11] worked out at 1000 nM.
On to `CCN1C[C@H]2N(C(=O)[C@H]3CC[C@H](C(=O)O)CC3)CC[C@@]2(S(=O)(=O)c2ccc(F)cc2)c2ccc(C(F)(C(F)(F)F)C(F)(F)F)cc21`, for which the half-life in series [1], in series [4] and in [5] was over 2 h throughout. For the same molecule, the fraction unbound in [2] worked out at 0.005. The IC50 in series [3] was over 10 µM; in series [6], over 40 µM; in [7], over 10 µM; in series [8], over 10 µM; in [9] it was over 10 µM. The same molecule returned a Cmax in [10] of 13000 nM. The concentration at 24 h in series [11] was determined as 3000 nM.
With `O=C(O)[C@H]1CC[C@H](C(=O)N2CC[C@@]3(S(=O)(=O)c4ccc(F)cc4)c4ccc(C(F)(C(F)(F)F)C(F)(F)F)cc4CC[C@@H]23)CC1`, the half-life in [1], in series [4] and in series [5] was over 2 h throughout. Also, the IC50 in series [3] was over 10 µM; in series [6] it was over 40 µM; in [7], over 10 µM; in [8], over 10 µM; in [9], over 10 µM. In series [10], this molecule showed a Cmax of 8600 nM. In series [11], the concentration at 24 h was found to be 1600 nM.
Regarding `CCCN1C[C@H]2N(C(=O)[C@H]3CC[C@H](C(=O)O)CC3)CC[C@@]2(S(=O)(=O)c2ccc(F)cc2)c2ccc(C(F)(C(F)(F)F)C(F)(F)F)cc21`, the half-life is over 2 h in series [1], 1.53 h in [4] and 1.77 h in [5]. For the same molecule, in series [2], the fraction unbound stood at 0.002. Moreover, the IC50 is over 10 µM in [3]; over 40 µM in series [6]; over 10 µM in series [7]; over 10 µM in [8]; over 10 µM in series [9].
Take `O=C(O)[C@H]1CC[C@H](C(=O)N2CC[C@@]3(S(=O)(=O)c4ccccc4)c4ccc(C(F)(C(F)(F)F)C(F)(F)F)cc4CC[C@@H]23)CC1`: the half-life in [1], in series [4] and in series [5] was over 2 h in each case. The IC50 in series [3] was over 10 µM; in series [6], over 40 µM; in [7], over 10 µM; in [8], over 10 µM; in series [9] it was over 10 µM. In addition, the highest level in series [10] (Cmax) was 6900 nM. The concentration at 24 h in series [11] came to 740 nM.
As for `CN1C[C@H]2N(C(=O)[C@H]3CC[C@H](C(=O)O)CC3)CC[C@@]2(S(=O)(=O)c2ccc(F)cc2)c2ccc(C(F)(C(F)(F)F)C(F)(F)F)cc21`, the half-life in [1], in series [4] and in series [5] was over 2 h throughout. The fraction unbound in series [2] worked out at 0.024. Moreover, the IC50 in series [3] is over 10 µM; in series [6], over 40 µM; in series [7], over 10 µM; in [8], over 10 µM; in series [9], over 10 µM. The same molecule yielded a Cmax in series [10] of 10000 nM. Further, the concentration at 24 h in [11] was determined as 710 nM.
For the molecule `O=C(O)[C@H]1CC[C@H](C(=O)N2CC[C@@]3(S(=O)(=O)c4ccc(F)cc4)c4ccc(C(F)(C(F)(F)F)C(F)(F)F)cc4OC[C@@H]23)CC1`, the half-life in [1], in series [4] and in [5] was over 2 h in each case. The molecule further returned a free fraction (fraction unbound) in series [2] of 0.003. Besides, the IC50 was over 10 µM in [3]; over 40 µM in [6]; over 10 µM in series [7]; over 10 µM in series [8]; over 10 µM in series [9].
